Measured values: article PMC10202292, “The exquisite specificity of human protein arginine methyltransferase 7 (PRMT7) toward Arg-X-Arg sites” (PLOS ONE, 2023)
Where two headings read alike, the source gives them in different places. No end group written: not given here.

Assays:
GST-HsPRMT7 [1] = target: T1, GST-HsPRMT7 (Homo sapiens, UniProt Q9NVM4); experiment: Michaelis-Menten kinetics of peptide substrate methylation (P81 phosphocellulose paper assay); format: biochemical; design: key to Vmax, Michaelis-Menten best-fit value, Fig7 / Vmax, Michaelis-Menten best-fit value, Fig8: Vmax expressed as cpm (averages of cycles 2–4); settings: for Vmax, times lower than RKR: experiments of Fig 7, relative to RKR peptide; for Vmax, Michaelis-Menten best-fit value, Fig7 / Km / Vmax, Michaelis-Menten best-fit value, Fig8: 60 min, 25°C; for change of Vmax after adding 130 mM KCl: with vs without 130 mM KCl (Fig 8, Table 2), in words
T1 construct: full-length human PRMT7 (residues 1–692); 34693; host or cells: E. coli BL21 DE3
T1 sequence (Q9NVM4 1-692): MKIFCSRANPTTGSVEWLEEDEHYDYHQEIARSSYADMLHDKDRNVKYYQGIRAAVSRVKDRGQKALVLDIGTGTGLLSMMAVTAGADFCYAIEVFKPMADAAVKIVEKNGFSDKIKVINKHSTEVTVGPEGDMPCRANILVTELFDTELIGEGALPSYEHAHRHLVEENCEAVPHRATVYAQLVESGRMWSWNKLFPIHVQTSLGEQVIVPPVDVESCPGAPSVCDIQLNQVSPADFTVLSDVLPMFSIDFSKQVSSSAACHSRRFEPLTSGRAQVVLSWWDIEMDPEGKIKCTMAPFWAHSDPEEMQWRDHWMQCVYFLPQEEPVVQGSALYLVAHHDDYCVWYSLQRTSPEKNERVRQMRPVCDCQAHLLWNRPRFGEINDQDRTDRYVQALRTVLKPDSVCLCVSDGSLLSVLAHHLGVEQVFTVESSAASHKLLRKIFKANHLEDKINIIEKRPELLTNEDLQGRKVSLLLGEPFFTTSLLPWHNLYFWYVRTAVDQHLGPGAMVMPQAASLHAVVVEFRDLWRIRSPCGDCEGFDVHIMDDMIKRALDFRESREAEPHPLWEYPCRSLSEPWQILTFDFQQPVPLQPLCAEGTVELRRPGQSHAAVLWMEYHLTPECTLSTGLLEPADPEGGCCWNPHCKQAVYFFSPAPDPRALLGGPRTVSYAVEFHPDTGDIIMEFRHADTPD
Procedure: (§1) In vitro methylation assays were performed with GST-HsPRMT7, the indicated substrate protein or peptide, and 1.4 μM S-adenosyl-L-[methyl-^3H]methionine ([^3H]-AdoMet; PerkinElmer cat no. NET155V), prepared from diluting a stock of 7.0 μM [^3H]-AdoMet (81.9 Ci/mmol, 1 mCi/mL in 9:1 10 mM H2SO4:EtOH, v/v) in 10 mM HCl. All reactions were performed using distilled water buffered with 50 mM potassium HEPES, pH 9.5 and 1 mM DTT, reaching a final reaction volume of 30 μL. The reactions were initiated by adding [^3H]-AdoMet to a final concentration of 0.14 μM. Control reactions (enzyme-only, substrate-only) contained distilled water instead of substrate or GST-HsPRMT7, respectively. After initiation with [^3H]-AdoMet, all reactions analyzed via P81 phosphocellulose filter paper assay were incubated in a water bath at 25°C unless otherwise indicated for the specified time periods and were terminated with 0.5 μL 100% (w/v) trifluoroacetic acid (TFA). P81 assays performed at t = 0 were individually terminated immediately following initiation. Samples analyzed via SDS-PAGE were incubated at 4°C for 24 hours and were quenched by adding 5x SDS sample loading buffer (250 mM Tris-HCl, pH 6.8; 10% SDS, 30% glycerol, 10% β-mercaptoethanol, 0.2% bromophenol blue), followed by heating at 97°C for 3 min.
(§2) In vitro methylation assays with GST-HsPRMT7, selected methyl-accepting substrates, and [^3H]-AdoMet were set up as described previously and performed in triplicate. Following incubation at 25°C unless otherwise indicated for the time periods specified, all samples were quenched with 0.5 μL 100% TFA and centrifuged at 9,300 g for 10 seconds in an Eppendorf centrifuge (Model 5417C). 1 cm^2 pieces of P81 phosphocellulose filter paper (LabAlley catalog no. 05-717-2A) were spotted with 25 μL from each reaction mixture and set to dry overnight. The following day, all filter paper pieces were washed three times with 50 mM sodium bicarbonate solution, pH 9.0, and dried again in liquid scintillation vials. After 5 mL of Safety Solve fluor (RPI industries) was added to each vial, [^3H] radioactivity in each sample was quantified via liquid scintillation counter (Beckman LS6500) for four total cycles at 5 minutes per sample. All data presented are expressed as averages of the cpm from cycles 2–4.
(§3) Statistical analyses were performed using the “Analyze Data” function on GraphPad Prism v.8.0.1. To determine statistical significance, unpaired homoscedastic two-tailed Student’s t tests were performed with significance level α = 0.05 with the relevant data. To obtain apparent km and Vmax values, kinetic data were analyzed by non-linear regression using the Michaelis-Menten equation.

GST-HsPRMT7 [2] = target: T1, GST-HsPRMT7; experiment: P81 phosphocellulose filter paper methylation assay with peptide substrates (cpm, end point and time course); format: biochemical; settings: for methylation activity compared with enzyme-only control: 0-120 min time course (Fig 6); for Difference between means ± SEM vs GST-HsPRMT7 + 10 uM Hs H2B (23-37), Fig5: 10 uM peptide, 4°C
Procedure: as §1, §2, §3

human PRMT7 = settings: relative to unsubstituted peptide; cited from earlier work
Procedure: Comparatively, a previous study of ionic strength in human HEK293 cells estimates the intracellular concentration of potassium ions to be about 120–140 mM in human cells. As such, our results in Fig 7 led us to question whether this dramatic decrease in activity may be associated with a loss of either substrate-enzyme binding affinity or catalytic activity. || We confirm that human PRMT7 activity is quite sensitive to changes in the RXR target sequence in the substrate protein. […] The exquisite specificity of PRMT7 toward the basic RXR motif can be contrasted to the much broader speci ...

[3] = no added salt, 5 μg GST-HsPRMT7, 0.14 μM [3H]-AdoMet, GraphPad Prism fit
[4] = no added salt, 5 μg GST-HsPRMT7, 0.14 μM [3H]-AdoMet, GraphPad Prism fit, read-out: Km, Michaelis-Menten best-fit value, Fig7
[5] = no added salt, 5 μg GST-HsPRMT7, 0.14 μM [3H]-AdoMet, experiments of Fig 7, read-out: apparent km (binding affinities), Fig 7
[6] = no added salt, apparent km of peptide substrate, 5 μg GST-HsPRMT7, various peptide concentrations, 0.14 μM [3H]-AdoMet, pH 9.5, Michaelis-Menten fit, triplicates (Fig 8), read-out: km
[7] = no salt, 5 μg GST-HsPRMT7, 0.14 μM [3H]-AdoMet, GraphPad Prism fit
[8] = no salt, 5 μg GST-HsPRMT7, 0.14 μM [3H]-AdoMet, GraphPad Prism fit, read-out: Km, Michaelis-Menten best-fit value, Fig8
[9] = 10 μM peptide, 5 μg GST-HsPRMT7, 25°C, in words
[10] = + 130 mM KCl, 5 μg GST-HsPRMT7, 0.14 μM [3H]-AdoMet, GraphPad Prism fit, read-out: Km, Michaelis-Menten best-fit value, Fig8
[11] = +130 mM KCl, apparent km, 5 μg GST-HsPRMT7, various peptide concentrations, 0.14 μM [3H]-AdoMet, pH 9.5, Michaelis-Menten fit, triplicates (Fig 8), read-out: km
[12] = from Table 2, no added salt, response to reviewers, RGG peptide apparently = Mono R

| Vmax, Michaelis-Menten best-fit value, Fig7 (GST-HsPRMT7 [1]; [3]) | Km (GST-HsPRMT7 [1]; [4]) [µM] | Km (GST-HsPRMT7 [1]; [6]) [µM] | Vmax, Michaelis-Menten best-fit value, Fig8 (GST-HsPRMT7 [1]; [7]) | Km (GST-HsPRMT7 [1]; [8]) [µM] | Km (GST-HsPRMT7 [1]; [10]) [µM] | Km (GST-HsPRMT7 [1]; [11]) [µM] | Substance | change of Vmax after adding 130 mM KCl (GST-HsPRMT7 [1]) | PRMT7 activity with substituted human histone H2B (23–37) peptides (human PRMT7) | further results |
| --- | --- | --- | --- | --- | --- | --- | --- | --- | --- | --- |
| 299.5 | 0.192 | 2.8 | 752.7 | 2.79 |  |  | Ac-KKGGRERGGKKY-NH2 [synthetic RXR peptide with glutamate within the motif] |  |  | Vmax, times lower than RKR (GST-HsPRMT7 [1]): 5–6 times; Km (GST-HsPRMT7 [1]; [5]): 2.8 µM |
| 262.6 | 0.223 | 1.4 | 993.4 | 1.42 | 0.28 |  | Ac-KKGGRGGGGKKY-NH2 [Mono R, synthetic peptide with a single arginine flanked by glycine and lysine residues] |  |  | PRMT7 methylation activity (GST-HsPRMT7 [2]; 10 μM peptide, 5 μg GST-HsPRMT7, 0.14 μM [3H]-AdoMet, 20 h, 4°C (Fig 5), in words): barely detectable over the PRMT7-only control; methylation activity compared with enzyme-only control (GST-HsPRMT7 [2]; [9]): not significantly greater than control; Difference between means ± SEM vs GST-HsPRMT7 + 10 uM Hs H2B (23-37), Fig5 (GST-HsPRMT7 [2]; 20 h, n = 3, SEM): -4140 ± 625.1 cpm; Vmax, times lower than RKR (GST-HsPRMT7 [1]): 5–6 times; Km (GST-HsPRMT7 [1]; [5]): 1.4 µM |
| 1036 | 0.682 | 0.7 | 2435 | 0.743 | 6.21 | 6.2 | Ac-KKGGRGRGGKKY-NH2 [synthetic peptide with an RGR motif flanked by glycine and lysine residues] | up to an approximately three-fold decrease |  | methylation activity (maximum value) (GST-HsPRMT7 [2]; 10 μM peptide, 5 μg GST-HsPRMT7, 0.14 μM [3H]-AdoMet, 25°C, t = 120 min (Fig 6), approximate): about 800 cpm; decrease of PRMT7 activity relative to human H2B (23–37) (GST-HsPRMT7 [2]; 10 μM peptide, 5 μg GST-HsPRMT7, 0.14 μM [3H]-AdoMet, 20 h, 4°C (Fig 5)): 4 to 5 fold; Difference between means ± SEM vs GST-HsPRMT7 + 10 uM Hs H2B (23-37), Fig5 (GST-HsPRMT7 [2]; 20 h, n = 3, SEM): -2852 ± 662.1 cpm; Vmax relative to the RGG peptide (GST-HsPRMT7 [1]; [12]): about 2.5 fold; apparent km relative to the RGG peptide (GST-HsPRMT7 [1]; [12]): about half |
| 1042 | 0.5 | 0.5 | 969.7 | 0.514 | 2.43 | 2.4 | Ac-KKGGRGRKGKKY-NH2 [synthetic RXR peptide with an additional lysine after the RGR motif] | up to an approximately three-fold decrease |  |  |
| 1749 | 0.759 | 0.6 | 1716 | 0.553 | 6.88 | 6.9 | Ac-KKGGRKRGGKKY-NH2 [synthetic RXR peptide with lysine within the motif] | up to an approximately three-fold decrease |  |  |
| 1553 | 0.895 | 0.6 | 1150 | 0.601 | 3.35 | 3.3 | Ac-KKGKRGRGGKKY-NH2 [synthetic RXR peptide with an additional lysine before the RGR motif] | up to an approximately three-fold decrease |  |  |
|  |  |  |  |  |  |  | KKDGKKRRKSRKESY [Xl H2B (23–37), synthetic peptide of amino acids 23–37 of Xenopus laevis histone H2B, containing 29-RRKSR-33] |  |  | GST-HsPRMT7 methylation activity (GST-HsPRMT7 [2]; 10 μM peptide, 5 μg GST-HsPRMT7, 0.14 μM [3H]-AdoMet, 40 min, 25°C (Fig 3), in words): no significant methylation activity over background; methylation activity compared with enzyme-only control (GST-HsPRMT7 [2]; [9]): low methylation activity but was significantly above control; methylation by human PRMT7 (GST-HsPRMT7 [2]; 10 and 50 μM peptide, 5 μg GST-HsPRMT7, 25°C, 0-3 h time course (Fig 4), in words): methylated by human PRMT7, albeit at low levels; Mean of GST-HsPRMT7 + peptide, Fig3 (GST-HsPRMT7 [2]; mean of n = 3, 10 μM peptide, 40 min, 25°C): 98.42 cpm; Difference between means ± SEM vs peptide only, Fig3 (GST-HsPRMT7 [2]; n = 3, 10 μM peptide, 40 min, 25°C, SEM): 28.16 ± 17.00 cpm |
|  |  |  |  |  |  |  | R29K: human histone H2B (23–37) peptide with R29K substitution, from ref 11 (KKDGKKKKRSRKESY; not fully specified (N-terminus, C-terminus); UniProt P62807 24-38, looked up, variant R29K) |  | at least a two-thirds reduction |  |
|  |  |  |  |  |  |  | R31K-substituted human H2B (23–37): R31K-substituted human H2B (23–37) peptide, from ref 11 (KKDGKKRKKSRKESY; not fully specified (N-terminus, C-terminus); UniProt P62807 24-38, looked up, variant R31K) |  | no methyl-accepting activity |  |
|  |  |  |  |  |  |  | R33K: human histone H2B (23–37) peptide with R33K substitution, from ref 11 (KKDGKKRKRSKKESY; not fully specified (N-terminus, C-terminus); UniProt P62807 24-38, looked up, variant R33K) |  | at least a two-thirds reduction |  |
